Measurements as given in paper PMC7840129, “Structural basis for heme-dependent NCoR binding to the transcriptional repressor REV-ERBβ” (Science Advances, 2021).

Tested on: REV-ERBβ LBD cobound to heme
Experiment: Crystal structures of REV-ERBβ LBD cobound to heme and NCoR ID peptides
Assay type: binding, human
Settings: ID1 PDB 6WMQ, ID2 PDB 6WMS
Procedure: After overnight incubation at 4°C with peptide, REV-ERBβ LBD cobound to heme and peptide was buffer-exchanged into Hepes gel filtration buffer to remove unbound and concentrated to 15 mg/ml (ID2-bound) or 5 mg/ml (ID1-bound). Buffer-exchanged proteins were screened for conditions that produced crystals using the NR LBD (Molecular Dimensions), Structure (Molecular Dimensions), Index (Hampton Research), and PEG/Ion (Hampton Research) kits and sitting drop method (1-μl reservoir solution added to 1-μl drop of protein solution) at 22°C. REV-ERBβ LBD crystals cobound to heme and NCoR ID2 grew in 0.2 M Mg formate dihydrate and 20% (w/v) PEG 3350 (PEG/Ion), and REV-ERBβ LBD crystals cobound to heme and NCoR ID1 grew in 2.0 M ammonium sulfate, 0.1 M Na Hepes (pH 7.5), and 2% PEG 400 (Structure). Crystals in their respective condition were supplemented with 10% glycerol and flash-cooled in liquid nitrogen. X-ray diffraction data were collected at the Advanced Light Source synchrotron (Lawrence Berkeley National Laboratory) in 180 images with a 1° rotation per image. Data were processed, indexed, and scaled using Mosflm and Scala in CCP4 (Collaborative Computational Project No. 4) ([32], [33]). […]
Structures were aligned, and RMSD values were calculated in PyMOL using the “align” command with cycles set to 0 (no outliers were removed). […]

**Q.** `CC[C@H](C)[C@H](NC(=O)[C@H](CC(=O)O)NC(=O)[C@H](CCC(=O)O)NC(=O)[C@H](CC(C)C)NC(=O)CNC(=O)[C@H](CC(C)C)NC(=O)[C@H](CC(N)=O)NC(=O)[C@H](CO)NC(=O)[C@H](C)NC(=O)[C@@H]1CCCN1C(=O)[C@H](CC(=O)O)NC(C)=O)C(=O)N[C@H](C(=O)N[C@@H](CCCNC(=N)N)C(=O)N[C@@H](CCCCN)C(=O)N[C@@H](C)C(=O)N[C@@H](CC(C)C)C(=O)N[C@@H](CCSC)C(=O)NCC(=O)N[C@@H](CO)C(=O)N[C@@H](Cc1ccccc1)C(=O)N[C@@H](CC(=O)O)C(=O)N[C@@H](CC(=O)O)C(=O)N[C@@H](CCCCN)C(N)=O)[C@@H](C)CC` [NCoR ID2 peptide] was tested. Which “interaction of bound ID peptide in crystal structure (in words)” value did it give?
**A.** formed electrostatic interactions with the conserved charge clamp residue K421 on helix 3

**Q.** With “Ac-RTHRLITLADHICQIITQDFARN-NH2 [NCoR ID1 peptide]” as the molecule, how does the “interaction of bound ID peptide in crystal structure (in words)” value read?
**A.** formed electrostatic interactions with the conserved charge clamp residue K421 on helix 3
